{
  "source": "paper PMC6829886",
  "about": "“Inhibition of Non-Small Cell Lung Cancer Cells by Oxy210, an Oxysterol-Derivative that Antagonizes TGFβ and Hedgehog Signaling” (Cells, 2019)",
  "key": {"[1]": {"test_system": "TGFβ signaling in NIH3T3-E1 cells", "assay": "TGFβ target gene expression (Q-RT-PCR) in NIH3T3 cells", "type": "cell-based, mouse", "conditions": "NIH3T3 cells, TGFβ 20 ng/mL", "protocol": "Total RNA was extracted with the RNeasy Plus Mini Kit from Qiagen (Hilden, Germany) according to the manufacturer’s instructions. One microgram of RNA was reverse-transcribed using an iScript Reverse Transcription Supermix from Bio-Rad Laboratories (Hercules, CA, USA) to make single-stranded cDNA. The cDNAs were then mixed with Qi SYBR Green Supermix (Bio-Rad) for quantitative RT-PCR assay using a Bio-Rad I-cycler IQ quantitative thermocycler. All PCR samples were prepared in triplicate wells in a 96-well plate. After 40 cycles of PCR, melt curves were examined in order to ensure primer specificity. Fold changes in gene expression were calculated using the ΔΔCt method. Primers used for mouse were as follows: Oaz1 (5′-CCACTGCTTCGCCAGAGAG-3′) and (5′-CCCGGACCCAGGTTACTA-3′), Gli1 (5′- […]-3′ and 5′- GCT GATCCAGCCTAAGGTTCTC-3′), Ptch1 (5′-CCATCGGCGACAAGAACC-3′ and 5′-[…]-3′), Thbs1 (5′-[…]-3′ and 5′-CGGGGATCAGGTTGGCATT-3′), Cryab (5′-[…]-3′ and 5′-[…]-3′), Egr2 (5′-[…]-3′ and 5′-[…]-3′), CTGF (5′-GGGCCTCTTCTGCGATTTC-3′ and 5′-[…]-3′).\nFigure 4 Inhibition of ligand-induced Hedgehog and TGFβ signaling in mouse fibroblast cells. NIH3T3 cells were pretreated for 2 h with Oxy210 or various inhibitors as indicated in DMEM containing 5% FBS. Next, cells were treated with CAPAN-1 conditioned medium (CM) in the absence or presence of oxysterols or inhibitors. After 72 h, RNA was extracted and analyzed by Q-RT-PCR for the expression of Hh target genes Gli1 and Ptch1 and normalized to Oaz1 expression (a,b). (c,e) NIH3T3 cells were treated in DMEM containing 0.1% BCS overnight and then pretreated for 2 h with the inhibitors as indicated in DMEM containing 0.1%BCS. The cells were then treated with TGFβ (20ng/mL) in the absence or presence of the compounds. After 48 h, RNA was extracted and analyzed by Q-RT-PCR for the expression of TGFβ target genes as indicated and normalized to Oaz1 expression. (d) NIH3T3 cells cultured in 24 well-plates were transfected with a Smad response element reporter (SBE-Luciferase) plasmid and a pTK-Renilla-Luciferase plasmid. 6 hrs after transfection, cells were treated with the test agents as indicated for 48 hrs. Luciferase activity was measured and normalized to the Renilla luciferase activity. Data from a representative experiment are reported as the mean of triplicate determinations ± SD (** p < 0.01 vs. CM (a,b) or TGFβ (c,d and e) treated cells; ## p < 0.01 vs. control)."}, "Human TGFBR1": {"biological_target": "T1, Human TGFBR1 (Homo sapiens, UniProt P36897)", "T1 construct": "Human TGFBR1 (amino acid 200 to end); purchased Eurofins", "T1 sequence (P36897 200-503 limits assumed)": "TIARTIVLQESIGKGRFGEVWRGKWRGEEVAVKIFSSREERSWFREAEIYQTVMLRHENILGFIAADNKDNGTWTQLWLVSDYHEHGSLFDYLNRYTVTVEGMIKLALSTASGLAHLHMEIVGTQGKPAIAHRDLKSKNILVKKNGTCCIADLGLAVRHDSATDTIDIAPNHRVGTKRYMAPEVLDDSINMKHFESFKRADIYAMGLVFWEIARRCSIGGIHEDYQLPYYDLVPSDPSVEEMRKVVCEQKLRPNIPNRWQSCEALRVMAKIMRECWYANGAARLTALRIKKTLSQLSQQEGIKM", "assay": "TGFβ receptor I kinase inhibition assay (Eurofins)", "type": "biochemical", "conditions": "vs. positive controls Cdk1/2 Inhibitor III and PKR Inhibitor", "protocol": "Effect of Oxy210 on inhibition of TGFβ receptors I and II kinase activity was assessed by Eurofins (Celle-L’Evescault, France). TGFBR1 (h): Human TGFBR1 (amino acid 200 to end) was incubated with 8 mM MOPS pH 7.0, 0.2 mM EDTA, 1 mM MnCl2, 2 mg/mL casein, 10 mM Magnesium acetate and […] (specific activity and concentration as required). The reaction was initiated by the addition of the Mg/ATP mix. After incubation for 40 min at room temperature, the reaction was stopped by the addition of phosphoric acid to a concentration of 0.5%. 10 μL of the reaction was then spotted onto a P30 filtermat and washed four times for 4 min in 0.425% phosphoric acid and once in methanol prior to drying and scintillation counting. TGFBR2 (h): Human TGFBR2 (amino acid 188-end) was incubated with 20 mM Tris/HCl pH 8.5, 0.2 mM EDTA, 0.33 mg/mL MBP, 10 mM Magnesium acetate and [9-33P-ATP] (specific activity and concentration as required). The reaction was initiated by the addition of the Mg/ATP mix. After incubation for 120 min at room temperature, the reaction was stopped by the addition of phosphoric acid to a concentration of 0.5%. […]\nFigure 11 Inhibition of TGFβ-induced Smad2/3 phosphorylation and transcriptional activity. […] Luciferase activity was measured and normalized to the Renilla luciferase activity. […]"}},
  "data": [
    {"smiles": "C[C@]12CC[C@H]3[C@@H](CC=C4C[C@@H](O)CC[C@@]43C)[C@@H]1CC[C@@H]2[C@](C)(O)CCc1cccnc1", "note": "[Oxy210, (3S,8S,9S,10R,13S,14S,17S)-17-((R)-2-hydroxy-4-(pyridin-3-yl)butan-2-yl)-10,13-dimethyl-2,3,4,7,8,9,10,11,12,13,14,15,16,17-tetradecahydro-1H-cyclopenta[a]phenanthren-3-ol]", "values": [
      {"measurement": "expression of TGFβ target genes CTGF, Egr2, Thbs1 and Cryab", "setting": "[1]; 48 h", "value": "strongly inhibited"},
      {"measurement": "expression of CTGF induced by TGFβ", "setting": "[1]; 48 h (Figure 4e)", "value": "robustly inhibited"},
      {"measurement": "inhibitory activity on TβRI in functional kinase assay", "setting": "Human TGFBR1", "value": "did not display significant inhibitory activity"}
    ]}
  ]
}
